According to ChEMBL document CHEMBL1201862, “PubChem BioAssay data set” (2004):
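Growth conditions: 96-well plates. Treatment: test compound, 48 hours, 5 concentrations. Analysis: linear interpolation between bracketing concentrations; unreached endpoints set to highest concentration. Here, GI50 denotes the concentration required for 50% inhibition of growth.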 Calls of active or inactive are those of the source. Rule as the data show it: active = GI50 up to about 1.1 µM and inactive = higher.

Key:
Experiment in all cases: NCI-60 cell line screen, 48 h
NCI-H522 = test system: NCI-H522
PC-3 = test system: PC-3
SW-620 = test system: SW-620
A549 = test system: A549
HT-29 = test system: HT-29
HOP-92 = test system: HOP-92
SN12C = test system: SN12C
HCC 2998 = test system: HCC 2998
NCI-H460 = test system: NCI-H460
SNB-19 = test system: SNB-19
CCRF-CEM = test system: CCRF-CEM
IGROV-1 = test system: IGROV-1
SK-OV-3 = test system: SK-OV-3
NCI-H23 = test system: NCI-H23
UACC-257 = test system: UACC-257
OVCAR-3 = test system: OVCAR-3
NCI/ADR-RES = test system: NCI/ADR-RES
SK-MEL-28 = test system: SK-MEL-28
SNB-75 = test system: SNB-75
DU-145 = test system: DU-145

Measured: GI50

CCOC(=O)Nn1cnnc1Cc1ccccc1
inactive: NCI-H522 > 100 µM | PC-3 > 100 µM | SW-620 > 100 µM | A549 > 100 µM | HT-29 > 100 µM | HOP-92 > 100 µM | SN12C > 100 µM | HCC 2998 > 100 µM | NCI-H460 > 100 µM | SNB-19 > 100 µM | CCRF-CEM > 100 µM | IGROV-1 > 100 µM | SK-OV-3 > 100 µM | NCI-H23 > 100 µM | UACC-257 > 100 µM | OVCAR-3 > 100 µM | NCI/ADR-RES > 100 µM

O=C1C2C=CC(n3[nH]c(=O)n(Cc4ccccc4)c3=O)CC2C(=O)N1c1ccc(Br)cc1 (configuration not stated)
inactive: NCI-H522 > 100 µM | SW-620 > 100 µM | A549 > 100 µM | SK-MEL-28 > 100 µM | HT-29 > 100 µM | HOP-92 > 100 µM | SN12C > 100 µM | HCC 2998 > 100 µM | NCI-H460 > 100 µM | SNB-19 > 100 µM | CCRF-CEM > 100 µM | IGROV-1 > 100 µM | SK-OV-3 > 100 µM | NCI-H23 > 100 µM | UACC-257 > 100 µM | OVCAR-3 > 100 µM | SNB-75 47.1 µM

O=c1[nH]c(=O)n(C2OC(CO)C(O)C2O)cc1OCC(F)(F)F (configuration not stated)
inactive: NCI-H522 > 100 µM | SW-620 > 100 µM | A549 > 100 µM | SK-MEL-28 > 100 µM | HT-29 > 100 µM | HOP-92 > 100 µM | SN12C > 100 µM | HCC 2998 > 100 µM | NCI-H460 > 100 µM | SNB-19 > 100 µM | CCRF-CEM > 100 µM | IGROV-1 > 100 µM | SK-OV-3 > 100 µM | NCI-H23 > 100 µM | UACC-257 > 100 µM | OVCAR-3 > 100 µM | SNB-75 > 100 µM

CC(C)=C/C(CC(O)(C(F)(F)F)C(F)(F)F)=N\O
inactive: SW-620 > 100 µM | A549 > 100 µM | SK-MEL-28 > 100 µM | HT-29 > 100 µM | HOP-92 > 100 µM | DU-145 > 100 µM | SN12C > 100 µM | HCC 2998 > 100 µM | NCI-H460 > 100 µM | SNB-19 > 100 µM | CCRF-CEM > 100 µM | IGROV-1 > 100 µM | SK-OV-3 > 100 µM | NCI-H23 > 100 µM | UACC-257 > 100 µM | NCI/ADR-RES > 100 µM | SNB-75 > 100 µM

COC(=O)/C=C/c1c(CC=C(C)C)ncn1C
inactive: NCI-H522 25.3 µM | SW-620 6.79 µM | A549 70.3 µM | SK-MEL-28 > 49.5 µM | HT-29 14.4 µM | HOP-92 78.7 µM | SN12C 88.5 µM | HCC 2998 54.6 µM | NCI-H460 40.2 µM | SNB-19 26.1 µM | CCRF-CEM > 41.3 µM | IGROV-1 > 100 µM | SK-OV-3 47.9 µM | NCI-H23 37.7 µM | UACC-257 61.7 µM | OVCAR-3 16.9 µM | SNB-75 11.1 µM

C=C(C)CCC1C=[N+]([O-])OC(C)(C)C1(C)C (configuration not stated)
inactive: NCI-H522 > 100 µM | SW-620 39 µM | A549 49.3 µM | HT-29 > 100 µM | HOP-92 > 100 µM | DU-145 > 100 µM | SN12C > 100 µM | HCC 2998 > 100 µM | NCI-H460 > 100 µM | CCRF-CEM 33.3 µM | IGROV-1 > 100 µM | SK-OV-3 > 100 µM | UACC-257 > 100 µM | OVCAR-3 > 100 µM | NCI/ADR-RES > 100 µM | SNB-75 > 100 µM

CN(C)CCCN1CCc2c([nH]c3ccccc23)C1c1cccnc1 (configuration not stated)
inactive: NCI-H522 > 100 µM | SW-620 > 100 µM | A549 > 100 µM | SK-MEL-28 80 µM | HT-29 > 100 µM | HOP-92 33.8 µM | SN12C > 100 µM | HCC 2998 > 100 µM | NCI-H460 > 100 µM | SNB-19 > 100 µM | CCRF-CEM > 100 µM | IGROV-1 > 100 µM | SK-OV-3 > 100 µM | NCI-H23 > 100 µM | UACC-257 > 100 µM | OVCAR-3 > 100 µM | SNB-75 > 100 µM

CCOc1ncn(-c2ccc(NC(=S)NC34CC5CC(CC(C5)C3)C4)cc2)n1
inactive: NCI-H522 99.1 µM | PC-3 > 100 µM | SW-620 > 100 µM | A549 7.24 µM | SK-MEL-28 61.8 µM | HT-29 80.5 µM | HOP-92 25 µM | DU-145 > 100 µM | SN12C > 100 µM | HCC 2998 > 100 µM | NCI-H460 53.5 µM | SNB-19 46.1 µM | CCRF-CEM > 100 µM | IGROV-1 > 100 µM | SK-OV-3 33.2 µM | NCI-H23 > 100 µM | UACC-257 > 100 µM | OVCAR-3 > 100 µM | SNB-75 25.4 µM
